Calls of active or inactive are those of the source.
How the values were obtained:
[1] = molecular target: Heat shock protein HSP 90-alpha (Homo sapiens, UniProt P07900); format: functional, organism-based
Cysteine protease ATG4B = molecular target: T1, Cysteine protease ATG4B (Homo sapiens, UniProt Q9Y4P1); format: functional;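 note: Fluorescence-based dose-response confirmation assay measuring inhibition of ATG4B activity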
T1 sequence (Q9Y4P1 whole entry): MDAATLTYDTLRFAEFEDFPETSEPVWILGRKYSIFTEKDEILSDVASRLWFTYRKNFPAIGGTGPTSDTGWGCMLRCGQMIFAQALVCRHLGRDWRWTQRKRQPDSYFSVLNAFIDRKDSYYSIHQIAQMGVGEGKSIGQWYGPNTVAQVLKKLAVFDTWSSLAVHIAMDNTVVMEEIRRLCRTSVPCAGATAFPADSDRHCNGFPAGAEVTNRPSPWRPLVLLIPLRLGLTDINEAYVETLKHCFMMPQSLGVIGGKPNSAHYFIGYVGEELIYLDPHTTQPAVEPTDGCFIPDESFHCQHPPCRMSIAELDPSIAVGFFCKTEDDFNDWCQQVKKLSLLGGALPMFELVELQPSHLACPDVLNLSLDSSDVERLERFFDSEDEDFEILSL

Streptokinase A = molecular target: T2, Streptokinase A (Streptococcus pyogenes serotype M1, UniProt P10520); assay: S. pyogenes streptokinase expression inhibitors, potency, dose response, plasminogen activation absorbance, OD405 (AID 1914); format: functional, Streptococcus pyogenes M1 GAS;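 note: secreted streptokinase activity via plasminogen activation per viability signal from cell pellet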
T2 sequence (P10520 whole entry): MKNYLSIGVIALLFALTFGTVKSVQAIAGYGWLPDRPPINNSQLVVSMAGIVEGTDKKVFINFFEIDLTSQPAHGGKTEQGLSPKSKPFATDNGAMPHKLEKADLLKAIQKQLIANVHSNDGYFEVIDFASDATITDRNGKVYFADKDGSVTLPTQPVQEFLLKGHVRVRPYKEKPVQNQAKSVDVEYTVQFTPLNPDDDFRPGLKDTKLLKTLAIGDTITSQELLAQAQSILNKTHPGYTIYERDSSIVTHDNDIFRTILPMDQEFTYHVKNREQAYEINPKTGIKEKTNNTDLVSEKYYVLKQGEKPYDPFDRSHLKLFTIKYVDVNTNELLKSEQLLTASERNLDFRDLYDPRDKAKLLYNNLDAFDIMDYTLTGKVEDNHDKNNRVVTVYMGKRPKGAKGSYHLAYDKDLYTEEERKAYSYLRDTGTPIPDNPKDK

Streptococcus = assay: Group A Streptococcus viability loss, dose response, counter-screen for streptokinase expression inhibitor project, luminescence, BacTiterGlo (AID 1915); format: functional, organism-based;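 note: potency for reduction of bacterial viability or growth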
[2] = molecular target: T3, Corticotropin-releasing factor receptor 2/Corticotropin-releasing factor-binding protein (Homo sapiens, UniProt P24387+Q13324); assay: activators of CRF receptor 2 with binding protein – uHTS hits, confirmation (AID 602473); format: functional; settings: read-out: EC50_Mean
T3 sequence (Q13324 whole entry): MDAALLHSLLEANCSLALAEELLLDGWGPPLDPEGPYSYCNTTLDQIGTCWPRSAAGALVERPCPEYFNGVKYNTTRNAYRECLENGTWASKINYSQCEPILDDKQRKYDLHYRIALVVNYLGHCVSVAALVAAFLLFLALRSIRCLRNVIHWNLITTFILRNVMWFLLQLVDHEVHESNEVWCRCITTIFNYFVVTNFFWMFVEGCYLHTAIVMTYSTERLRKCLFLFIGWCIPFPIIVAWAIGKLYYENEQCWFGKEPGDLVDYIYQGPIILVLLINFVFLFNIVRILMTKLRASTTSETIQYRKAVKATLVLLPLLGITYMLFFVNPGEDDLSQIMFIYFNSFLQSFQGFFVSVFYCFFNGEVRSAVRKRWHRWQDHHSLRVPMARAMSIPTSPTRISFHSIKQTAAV
T3 sequence (P24387 whole entry): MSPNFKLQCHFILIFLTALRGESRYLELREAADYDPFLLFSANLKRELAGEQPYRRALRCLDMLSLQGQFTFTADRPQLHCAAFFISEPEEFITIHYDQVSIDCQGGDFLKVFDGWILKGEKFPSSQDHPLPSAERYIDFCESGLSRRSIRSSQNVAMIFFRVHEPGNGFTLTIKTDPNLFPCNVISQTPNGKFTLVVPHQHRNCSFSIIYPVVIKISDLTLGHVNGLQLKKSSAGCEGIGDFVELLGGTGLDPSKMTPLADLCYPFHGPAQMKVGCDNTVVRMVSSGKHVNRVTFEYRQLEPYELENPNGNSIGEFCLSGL

[3] = C. albicans growth with fluconazole, confirmation, fluorescence, retest (AID 2467); format: functional, cell-based
[4] = molecular target: T3, Corticotropin-releasing factor receptor 2/Corticotropin-releasing factor-binding protein; assay: Dose Response confirmation of uHTS hits for small molecule antagonists of the CRF-binding protein and CRF-R2 receptor complex.; format: functional; settings: read-out: IC50_Mean
[5] = CRF-BP/CRF-R2 complex antagonists, dose response, cell-based, uHTS hits, 384-well (AID 651639); format: functional, Homo sapiens; settings: read-out: IC50_Mean
[6] = tested on: Streptococcus sp. 'group A'; assay: growth inhibition of control SK(-) GAS strain, dose response, counter-screen for streptokinase expression inhibitor project, luminescence, kanamycin, BacTiterGlo, confirmation (AID 1900); format: functional, organism-based
Phospholipase A2 = Phospholipase A2 (Homo sapiens, UniProt P04054); format: functional;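 note: confirmatory dose-response counterscreen on phospholipase A2, testing hits that came from an ultra-high-throughput screen for ATG4B inhibitors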
Phospholipase A2, sequence (P04054 whole entry): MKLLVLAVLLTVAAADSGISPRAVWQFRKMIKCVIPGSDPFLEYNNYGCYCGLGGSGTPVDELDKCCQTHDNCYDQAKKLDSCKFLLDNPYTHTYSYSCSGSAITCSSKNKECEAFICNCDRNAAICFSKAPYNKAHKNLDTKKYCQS

[7] = NIH-3T3 fibroblast cytotoxicity, dose response, cytotoxicity control, cell-based, fluorescence, Alamar Blue, secondary assay (AID 2327); format: functional;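 note: NIH-3T3 mouse fibroblasts cultured with fluconazole at 8 µg/mL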
Leucine aminopeptidase = molecular target: T4, Leucine aminopeptidase (Plasmodium falciparum 3D7, UniProt Q8IL11); assay: P. falciparum M17LAP inhibitors, primary screen, biochemical, fluorogenic H-Leu-NHMec substrate, 1536-well (AID 1619); format: functional
T4 sequence (Q8IL11 whole entry): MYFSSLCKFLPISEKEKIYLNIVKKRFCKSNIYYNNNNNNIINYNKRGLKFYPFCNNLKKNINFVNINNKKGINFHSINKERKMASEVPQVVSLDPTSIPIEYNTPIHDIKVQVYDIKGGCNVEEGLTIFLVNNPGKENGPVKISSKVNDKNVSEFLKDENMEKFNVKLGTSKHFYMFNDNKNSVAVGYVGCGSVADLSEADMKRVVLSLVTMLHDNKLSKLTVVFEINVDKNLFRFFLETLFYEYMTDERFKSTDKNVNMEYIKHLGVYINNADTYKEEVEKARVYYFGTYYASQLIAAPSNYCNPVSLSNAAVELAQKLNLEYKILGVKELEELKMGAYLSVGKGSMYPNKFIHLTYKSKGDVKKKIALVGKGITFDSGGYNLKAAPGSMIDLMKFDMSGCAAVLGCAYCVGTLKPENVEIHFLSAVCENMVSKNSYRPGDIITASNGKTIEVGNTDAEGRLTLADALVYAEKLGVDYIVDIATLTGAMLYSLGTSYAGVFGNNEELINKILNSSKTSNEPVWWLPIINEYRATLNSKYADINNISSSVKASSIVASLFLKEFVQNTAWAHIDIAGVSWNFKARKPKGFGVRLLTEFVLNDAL

[8] = molecular target: T5, Carboxy-terminal domain RNA polymerase II polypeptide A small phosphatase 1 (Homo sapiens, UniProt Q9GZU7); assay: inhibitors of CTDSP1, concentration-response testing, biochemical assay, absorbance-based, actives from ultra-high-throughput screening (AID 540297); format: functional
T5 sequence (Q9GZU7 whole entry): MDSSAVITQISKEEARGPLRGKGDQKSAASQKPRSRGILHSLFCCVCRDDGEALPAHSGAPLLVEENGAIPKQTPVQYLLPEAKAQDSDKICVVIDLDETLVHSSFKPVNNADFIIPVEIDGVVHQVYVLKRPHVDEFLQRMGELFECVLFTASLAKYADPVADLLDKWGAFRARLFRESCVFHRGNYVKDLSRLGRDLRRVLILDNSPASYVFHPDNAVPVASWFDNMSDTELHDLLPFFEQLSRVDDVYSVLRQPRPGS

P388 = assay: cells; format: functional; settings: Mus musculus
P388/ADR = assay: cells; format: functional; settings: Mus musculus, P388/ADR
SN12K1 = assay: cells; format: functional; settings: Homo sapiens
Interleukin-8 [9] = molecular target: T6, Interleukin-8 (Homo sapiens, UniProt P10145); assay: Dose Response confirmation of uHTS small molecule hits for cystic fibrosis induced NFkb Inhibitors in a PAF-induced IL8 counterscreen.; format: functional; settings: read-out: IC50_Mean
T6 sequence (P10145 whole entry): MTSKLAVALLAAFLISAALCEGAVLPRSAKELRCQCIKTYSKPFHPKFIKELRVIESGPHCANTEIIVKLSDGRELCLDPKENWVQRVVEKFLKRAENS

Interleukin-8 [10] = molecular target: T6, Interleukin-8; assay: Dose Response confirmation of uHTS small molecule hits for cystic fibrosis induced NFkb Inhibitors in a TNFa-induced IL8 counterscreen.; format: functional; settings: read-out: IC50_Mean
[11] = molecular target: Photoreceptor-specific nuclear receptor (Homo sapiens, UniProt Q9Y5X4); format: functional, cell-based;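 note: CHO-S cells with Gal4-NCOR and VP16-NR2E3 two-hybrid luciferase reporter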
Photoreceptor-specific nuclear receptor, sequence (Q9Y5X4 whole entry, the tested form may be a part): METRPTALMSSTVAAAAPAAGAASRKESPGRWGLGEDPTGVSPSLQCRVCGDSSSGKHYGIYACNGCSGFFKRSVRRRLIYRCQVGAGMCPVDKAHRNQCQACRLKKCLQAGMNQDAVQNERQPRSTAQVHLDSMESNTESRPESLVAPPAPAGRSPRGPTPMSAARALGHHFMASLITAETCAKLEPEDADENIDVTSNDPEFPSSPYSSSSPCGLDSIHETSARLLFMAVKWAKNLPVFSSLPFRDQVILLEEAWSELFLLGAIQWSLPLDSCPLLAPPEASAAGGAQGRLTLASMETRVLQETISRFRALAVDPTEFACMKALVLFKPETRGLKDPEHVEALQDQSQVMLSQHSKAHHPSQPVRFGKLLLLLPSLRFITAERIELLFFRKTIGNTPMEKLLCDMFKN

Melanocortin receptor 4 = Melanocortin receptor 4 (Homo sapiens, UniProt P32245); assay: MC4R antagonist potency on cAMP, dose response, cell-based, TR-FRET, biased antagonists (AID 602298); format: functional;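 note: antagonist potency against agonist-stimulated cAMP production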
Melanocortin receptor 4, sequence (P32245 whole entry): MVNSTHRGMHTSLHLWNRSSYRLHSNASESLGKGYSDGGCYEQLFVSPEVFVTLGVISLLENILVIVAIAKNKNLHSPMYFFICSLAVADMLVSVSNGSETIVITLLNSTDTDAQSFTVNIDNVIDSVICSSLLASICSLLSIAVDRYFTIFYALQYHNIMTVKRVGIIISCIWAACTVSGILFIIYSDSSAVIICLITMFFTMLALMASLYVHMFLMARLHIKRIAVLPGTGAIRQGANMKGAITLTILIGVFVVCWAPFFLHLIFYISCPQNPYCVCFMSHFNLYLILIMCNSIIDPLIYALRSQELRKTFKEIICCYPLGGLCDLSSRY

[12] = nonselective inhibitors of cellular cAMP signaling, dose response, counter-screen for MC4R biased antagonist project, cell-based, TR-FRET cAMP detection (AID 602305); format: functional;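 note: U2OS cells stimulated with forskolin near its EC80 as the cAMP inducer; potency is for inhibition of forskolin-stimulated cAMP signaling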
[13] = molecular target: 72 kDa type IV collagenase (Homo sapiens, UniProt P08253); assay: Dose Response validation of uHTS RPN11 inhibitor hits using a MMP-2 Fluorescence assay.; format: functional
72 kDa type IV collagenase, sequence (P08253 whole entry): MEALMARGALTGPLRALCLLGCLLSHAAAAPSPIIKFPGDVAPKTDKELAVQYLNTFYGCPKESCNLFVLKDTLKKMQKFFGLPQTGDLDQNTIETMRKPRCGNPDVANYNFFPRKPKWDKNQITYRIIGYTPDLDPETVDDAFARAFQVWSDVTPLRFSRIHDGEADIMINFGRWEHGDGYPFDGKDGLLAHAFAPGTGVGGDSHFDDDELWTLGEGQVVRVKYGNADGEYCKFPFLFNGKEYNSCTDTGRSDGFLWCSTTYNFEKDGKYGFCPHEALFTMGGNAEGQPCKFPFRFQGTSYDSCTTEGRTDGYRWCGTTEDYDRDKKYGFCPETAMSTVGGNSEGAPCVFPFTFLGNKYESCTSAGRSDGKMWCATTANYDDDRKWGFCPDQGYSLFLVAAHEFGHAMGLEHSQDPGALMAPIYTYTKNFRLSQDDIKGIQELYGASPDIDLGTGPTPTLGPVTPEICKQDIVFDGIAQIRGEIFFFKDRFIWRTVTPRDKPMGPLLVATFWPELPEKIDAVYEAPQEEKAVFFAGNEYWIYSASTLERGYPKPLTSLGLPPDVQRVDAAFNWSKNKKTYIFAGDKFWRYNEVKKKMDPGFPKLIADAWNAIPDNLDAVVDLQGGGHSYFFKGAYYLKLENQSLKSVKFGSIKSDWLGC

Prothrombin = Prothrombin (Bos taurus, UniProt P00735); assay: thrombin inhibition, dose response, biochemical, fluorescence polarization, uHTS hits (AID 602369); format: functional
[14] = molecular target: 26S proteasome non-ATPase regulatory subunit 14 (Homo sapiens, UniProt O00487); assay: inhibition of proteasome subunit RPN11 – biochemical, fluorescence polarization, uHTS hits, confirmation (AID 602368); format: functional
26S proteasome non-ATPase regulatory subunit 14, sequence (O00487 whole entry): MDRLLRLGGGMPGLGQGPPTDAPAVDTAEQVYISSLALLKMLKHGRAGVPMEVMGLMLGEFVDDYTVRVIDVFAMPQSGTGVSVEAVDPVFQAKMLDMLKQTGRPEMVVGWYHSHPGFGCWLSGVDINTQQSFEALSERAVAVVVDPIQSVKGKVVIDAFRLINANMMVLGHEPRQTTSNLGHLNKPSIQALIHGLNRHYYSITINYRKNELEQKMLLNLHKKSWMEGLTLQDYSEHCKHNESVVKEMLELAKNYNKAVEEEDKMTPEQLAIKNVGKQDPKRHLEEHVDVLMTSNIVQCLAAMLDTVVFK

SMILES: COc1ccc(/C=C/C(=O)c2cc(Br)ccc(=O)c2O)cc1
- AC50 [1]: 4.22 µM (active)

SMILES: CC(C)C(Sc1nc(-c2ccccc2)cc(-c2ccccc2)c1C#N)C(=O)O (stereo unspecified)
- IC50 (Cysteine protease ATG4B): 11.3 µM (active)
- EC50 (Streptokinase A): 10.1 µM (active)
- EC50 (Streptococcus): 9.19 µM (active)
- EC50 [2]: 35.7 µM (active)
- EC50 [3]: 2.61 µM (active)
- IC50 [4]: 6.76 µM (active)
- IC50 [5]: > 20 µM (inactive)
- EC50 [6]: 7.77 µM (active)
- IC50 (Phospholipase A2): 9.87 µM (active)
- EC50 [7]: 26.8 µM (active)

SMILES: O=C(O)COc1ccccc1/C=C1\SC(=S)N(/N=C/c2ccccc2O)C1=O
- IC50 (Cysteine protease ATG4B): 27.1 µM (inactive)
- IC50 (Leucine aminopeptidase): 21.3 µM (active)
- IC50 (Phospholipase A2): 32.1 µM (inactive)
- IC50 [8]: 8.53 µM (active)

SMILES: COCOc1ccc(OC)cc1
- GI50 (P388): > 100 µM (inactive)
- GI50 (P388/ADR): > 100 µM (inactive)
- GI50 (SN12K1): > 100 µM (inactive)

SMILES: N/C(=N/O)N/N=C\c1cc(Cl)cc(Cl)c1O
- GI50 (P388): 0.0182 µM (active)
- GI50 (P388/ADR): 0.998 µM (active)
- GI50 (SN12K1): 0.366 µM (active)

SMILES: CCC1(O)C(=O)OCc2c1cc1n(c2=O)Cc2cc3cc(O)ccc3nc2-1 (stereo unspecified)
- IC50 (Interleukin-8 [9]): 3 µM (active)
- IC50 (Interleukin-8 [10]): 40.5 µM (inactive)
- IC50 [11]: 4.21 µM (active)

SMILES: Cc1ncn(-c2ccc(C(=O)Oc3ccccc3)cn2)n1
- IC50 (Melanocortin receptor 4): > 64.5 µM (inactive)
- IC50 [12]: > 64.5 µM (inactive)

SMILES: CSCCC(NC(=O)c1ccc([N+](=O)[O-])cc1Cl)C(=O)OC(C)C(=O)NCc1ccco1 (stereo unspecified)
- IC50 (Melanocortin receptor 4): > 64.6 µM (inactive)
- IC50 [12]: 47.4 µM (inactive)

SMILES: CCc1ccccc1OCC(=O)Nc1ccc(N2CCCC2)cc1C
- IC50 [13]: 89 µM (active)
- IC50 (Prothrombin): 9.96 µM (active)
- IC50 [14]: 46.2 µM (active)

From ChEMBL document CHEMBL1201862, “PubChem BioAssay data set” (2004)
